These results are taken from patent US6281355A, “Nitrogen-containing tetracyclic compounds” (Taisho Pharmaceutical Co., Ltd., priority 1997, dated 2001).

As a reminder, the pIC50 is the IC50 on a negative log10 scale, so that one unit is a factor of ten.

SMILES strings stand for the structures. pIC50: −log10 of the molar value.

In this experiment the target is T1, mitochondrial diazepam binding inhibitor receptor (MDR) (Rattus norvegicus, UniProt P16257).
T1 construct: Crude mitochondria fractions prepared from rat cerebral cortex were used as a receptor sample; from tissue; host or cells: rat cerebral cortex, crude mitochondria fraction
T1 sequence (P16257 whole entry): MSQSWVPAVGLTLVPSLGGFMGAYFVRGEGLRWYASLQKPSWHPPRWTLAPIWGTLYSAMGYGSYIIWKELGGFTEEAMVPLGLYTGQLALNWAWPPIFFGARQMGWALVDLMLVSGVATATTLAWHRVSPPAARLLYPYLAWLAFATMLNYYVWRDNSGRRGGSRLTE
Briefly: MDR Receptor Binding Assay ([3H]PK11195 binding to crude mitochondria fraction of rat cerebral cortex). The following applies: inhibition of [3H]PK11195 (2 nM) binding; rat cerebral cortex crude mitochondria 1.0 mg protein/ml; 4° C., 90 minutes; non-specific: 10 μM PK11195. On the procedure:
Experiment [MDR Receptor Binding Assay]
Crude mitochondria fractions prepared from rat cerebral cortex were used as a receptor sample, and [^3 H]PK11195 was used as a [^3 H]-labeled ligand.
A binding assay using the [^3 H]-labeled ligand was carried out according to the following method as described in Journal of Pharmacology and Experimental Therapeutics, 262, 971(1992).
Preparation of Receptor Sample: Rat cerebral cortex was homogenized using a Teflon-coated homogenizer in a 10 mM HEPES buffer (pH 7.4) containing 0.32 M sucrose in ten volumes of the wet weight. The homogenate was centrifuged at 900× g for 10 minutes, and the resulting supernatant was centrifuged at 9,000× g for 10 minutes. The precipitate was suspended in a HEPES buffer to give a protein concentration of 1 mg/ml, and centrifuged at 12,000× g for 10 minutes. The resulting precipitate was suspended in a 50 mM HEPES buffer (pH 7.4) to give a crude mitochondria fraction.
MDR Binding Assay: Mitochondria sample (1.0 mg protein/ml), [^3 H]PK11195 (2 nM) and the test drug were reacted at 4° C. for 90 minutes.
After completion of the reaction, the reaction mixture was filtered with suction through a glass filter (GF/B) treated with 0.3% polyethyleneimine,and the radioactivity on the filter was measured by a liquid scintillation spectrometer.
The binding at the reaction in the presence of 10 μM PK11195 was defined as non-specific binding of [^3 H]PK11195, and the difference between total binding and non-specific binding was defined as specific binding.
Turning to `CCCCCCN(CCCCCC)C(=O)C1c2c([nH]c3ccccc23)-c2ccccc2N1C=O` (stereo not drawn) [Compound 27], the pIC50 was 7.45. Under `CN(C)C(=O)C1Sc2ccccc2-c2[nH]c3ccccc3c21` (stereo not drawn) [Compound 03] stands 7.41. `CCCN(CCC)C(=O)C1c2c([nH]c3ccccc23)-c2ccccc2S1(=O)=O` (stereo not drawn) [Compound 21, N,N-dipropyl-6,11-dihydro-5-thia-11-aza-benzo[a]fluoren-6-carboxamide 5,5-dioxide] gave a pIC50 of 8.95. In the case of `CCCCCCN(CCCCCC)C(=O)C1Cc2ccccc2-c2nc3ccccc3n21` (stereo not drawn) [Compound 26, N,N-dihexyl-5,6-dihydro-benzo[4,5]imidazo[2,1-a]isoquinoline-6-carboxamide] it was 7.37; in that of `CCCCCCN(CCCCCC)C(=O)C1c2c([nH]c3ccccc23)-c2ccccc2N1C(C)=O` (stereo not drawn) [Compound 28], 7.90. As for `CCCCCCN(CCCCCC)C(=O)C1Sc2ccccc2-c2[nH]c3ccc(F)cc3c21` (stereo not drawn) [Compound 09], the pIC50 is 7.86. In the case of `CCCCCCN(CCCCCC)C(=O)C1Sc2ccccc2-c2[nH]c3ccc(Cl)cc3c21` (stereo not drawn) [Compound 10] it was 7.70; in that of `CCCCCCN(CCOCCC)C(=O)C1Sc2ccccc2-c2[nH]c3ccccc3c21` (stereo not drawn) [Compound 14], 8.87; in that of `CCCN(CCC)C(=O)C1Cc2ccccc2-c2nc3ccccc3n21` (stereo not drawn) [Compound 25], 7.13. As to `CCCCCCN(CCCCCC)C(=O)C1Sc2ccccc2-c2[nH]c3ccc(C)cc3c21` (stereo not drawn) [Compound 11], the pIC50 was 7.86. Under `CCCCCCN(CCCCCC)C(=O)C1Sc2ccccc2-c2[nH]c3ccccc3c21` (single isomer, unassigned; (+)) [Compound 08, (+)-N,N-Dihexyl-6,11-dihydro-5-thia-11-aza-benzo[a]fluoren-6-carboxamide] stands 8.67; under `CCCCCCN(CCCCCC)C(=O)C1Sc2ccccc2-c2[nH]c3ccccc3c21` (racemic) [Compound 06, N,N-Dihexyl-6,11-dihydro-5-thia-11-aza-benzo[a]fluoren-6-carboxamide], 8.42; under `CCCNC(=O)C1Sc2ccccc2-c2[nH]c3ccccc3c21` (stereo not drawn) [Compound 02], 7.25. Under `CCCCCCN(CCCCCC)C(=O)C1Cc2ccccc2-c2[nH]c3ccccc3c21` (stereo not drawn) [Compound 23] stands 8.87. Under `CCCN(CCC)C(=O)C1Sc2ccccc2-c2[nH]c3ccccc3c21` (stereo not drawn) [Compound 05, N,N-dipropyl-6,11-dihydro-5-thia-11-aza-benzo[a]fluoren-6-carboxamide] stands 9.43. `CCCCCCN(CCCCCC)C(=O)C1c2c([nH]c3ccccc23)-c2ccccc2S1(=O)=O` (stereo not drawn) [Compound 22] had a pIC50 of 8.91. In the case of `CCCCCCN(CCCCCC)C(=O)C1Sc2ccccc2-c2c1c1ccccc1n2C` (stereo not drawn) [Compound 16, N,N-Dihexyl-6,11-dihydro-11-methyl-5-thia-11-aza-benzo[a]fluoren-6-carboxamide] it was 8.87. Under `CCN(CC)C(=O)C1Sc2ccccc2-c2[nH]c3ccccc3c21` (stereo not drawn) [Compound 04] stands 9.35; under `CCCCCCN(CCCCCC)C(=O)C1Sc2ccccc2-c2[nH]c3ccccc3c21` (single isomer, unassigned; (-)) [Compound 07, (-)-N,N-Dihexyl-6,11-dihydro-5-thia-11-aza-benzo[a]fluoren-6-carboxamide], 7.37. The molecule `COCCN(CCOC)C(=O)C1Sc2ccccc2-c2[nH]c3ccccc3c21` (stereo not drawn) [Compound 15] gave a pIC50 of 8.30. Under `CCCCCCN(CCCCCC)C(=O)C1Sc2ccccc2-c2[nH]c3c(F)cc(F)cc3c21` (stereo not drawn) [Compound 12] stands 7.66.
